Experiment [1] has as its target neuraminidase (NA) of A/Guangdong/05/2009 (H1N1) (Influenza A virus (A/Managua/5248.03/2009(H1N1)), UniProt E0V7D1). The settings on record: 0.15 mM 4-MUNANA, MES pH 6.5, 4 mM CaCl2, 37 °C, 1 h preincubation; Figure 2 legend says chemiluminescence assay.
Experiment [2] concerns the target neuraminidase (NA) of A/GuangdongSB/01/2009 (H1N1) (Influenza A virus (A/Managua/5248.03/2009(H1N1)), UniProt E0V7D1). To be noted: 0.15 mM 4-MUNANA, MES pH 6.5, 4 mM CaCl2, 37 °C, 1 h preincubation; Figure 2 legend says chemiluminescence assay.

Molecules are shown by their SMILES.

Turning to `C=CCOc1cc(C=O)ccc1O` [compound 15, 3-(allyloxy)-4-hydroxybenzaldehyde], the IC50 – broadly, the concentration needed to halve the response being measured – amounted to 25.1 µM in experiment [1] and 27 µM in experiment [2].

The record behind these values is PMC3210610, “Studies on Synthesis and Structure-Activity Relationship (SAR) of Derivatives of a New Natural Product from Marine Fungi as Inhibitors of Influenza Virus Neuraminidase” (Marine Drugs, 2011).
